Data: patent US20250197460A1, “USE OF LACTOBACILLUS PARACASEI GM-080 AND PEPTIDES THEREOF FOR ANTIMICROBIA” (GenMont Biotech Incorporation, priority 2023, published 2025)

Experiments:
[1] = test system: Streptococcus pyogenes NZ131; test: Antimicrobial peptide co-culture, viable bacteria in a dish coating manner; assay type: cell-based; conditions: 1-200 mg/mL
Method: (§1) The powder was diluted with DMSO to different concentrations. Subsequently, after being co-cultured with pathogenic streptococcus for different time periods, it was confirmed whether the antimicrobial peptides were the antimicrobial peptide of GM-080 capable of inhibiting Streptococcus pyogenes NZ131 by OD6oonm or in a dish coating manner simultaneously.

[2] = test system: Streptococcus pyogenes NZ131; test: Antimicrobial peptide co-culture with Streptococcus pyogenes (OD); assay type: cell-based
Method: as §1

Sequence	inhibition of growth of Streptococcus pyogenes in a dish coating manner (viable bacteria) ([1]; co-cultured for 2 or 5 hours, FIG. 9A)	inhibition of Streptococcus pyogenes in a co-culture manner ([2]; 10-200 mg/mL, from 2-3 hours of co-culture, FIG. 8A)	inhibition of growth of Streptococcus pyogenes in a dish coating manner ([1]; FIG. 9B)	inhibition of growth of Streptococcus pyogenes in a co-culture manner ([2]; 1-200 mg/mL, FIG. 8B)
MELLNEKELAHVIGGKRKCPKTPFDNTPGAWFAHLILGC (GM-080; listed as Lactobacillus paracasei) [AMP-01026, antimicrobial peptide of Lactobacillus paracasei GM-080, synthesized]	significantly inhibit the growth	good inhibition effect		
MKQFDEQKMVNMSDEELLEFIGGDSIRDVSPTFNKIRRWFDGLFK (GM-080; listed as Lactobacillus paracasei) [AMP-01240, second predicted antimicrobial peptide segment of GM-080, synthesized]			not capable of inhibiting the growth	not capable of inhibiting the growth
